Experimental data reported in the NIST ThermoML archive (doi:10.1016/j.jct.2005.01.004).
Numbers after ± are expanded uncertainties.

What was measured:
[1] = refractive index (Na D-line) (dimensionless); details: 298.15 K; 101.33 kPa; Liquid; Standard Abbe refractometry
[2] = 298.15 K; 101.33 kPa; Liquid

refractive index [1]: 1.3264 ± 0.0007
mass density [2]: 786.63 ± 0.61 kg/m3
SMILES: CO [methanol]
